Assay results: patent US10919934B2, “Compositions and methods for managing respiratory conditions” (Emory University, priority 2017, dated 2021)
Where a SMILES comes first, the peptide text is derived from it.

Tests used:
claudin-1 = test: Claudin-1 content, alcohol-exposed AECs; assay type: cell-based, rat; conditions: peptide-treated alcohol-exposed AECs
From the text: By contrast, control AECs were unaffected by the Ac-EFYDP(SEQ ID NO: 1)-NH2 peptide (FIG. 7A, C, E). A control peptide, Ac-LYQY (SEQ ID NO:35)-NH2, had no effect on AEC barrier function in either control or alcohol-exposed cells. The ability of Ac-EFYDP(SEQ ID NO: 1)-NH2 to improve the barrier function of alcohol-exposed AECs correlated with a decrease in tight-junction spike formation (FIG. 7G) and a specific decrease in total claudin-5 content (FIG. 7I). Claudin-18 and ZO-1 were unaffected (FIG. 7I) as was claudin-1.

alcohol-exposed AECs [1] = test: Paracellular flux of tracers, alcohol-exposed AECs; assay type: cell-based, rat; conditions: 10 mM peptide, 16 h
Method: (§1) The difference between AECs isolated from control- and alcohol-fed animals (alcohol-exposed AECs) was evaluated using two different measures of barrier function: transepithelial resistance (TER) and paracellular flux to soluble tracer molecules. […] Thus, alcohol exposure has a deleterious effect on AEC tight junctions.

alcohol-exposed AECs [2] = test: Transepithelial resistance (TER), alcohol-exposed AECs; assay type: cell-based, rat; conditions: 10 mM peptide, 16 h (overnight); alcohol-exposed AECs on Transwell
Method: (§2) AECs isolated from control were cultured on Transwell permeable supports for 5 days and then either untreated (un), or incubated with 10 mM control peptide (con; Ac-LYQY(SEQ ID NO:35)-NH2) or a claudin-5 extracellular domain mimetic peptide (C5; Ac-EFYDP(SEQ ID NO:1)-NH2) for 16 h. The cells were examined for barrier function by transepithelial resistance (TER).
as §1

claudin-5 [3] = target: T1, claudin-5 (Rattus norvegicus, UniProt Q9JKD6); test: Immunoblot for claudin-5, alcohol-exposed AECs; assay type: cell-based; conditions: peptide-treated cells from alcohol-fed rats; P=0.042 versus untreated, P=0.016 versus control
T1 construct: endogenous in cells; host or cells: primary alveolar epithelial cells (AECs) from alcohol-fed rats
T1 sequence (Q9JKD6 1-218): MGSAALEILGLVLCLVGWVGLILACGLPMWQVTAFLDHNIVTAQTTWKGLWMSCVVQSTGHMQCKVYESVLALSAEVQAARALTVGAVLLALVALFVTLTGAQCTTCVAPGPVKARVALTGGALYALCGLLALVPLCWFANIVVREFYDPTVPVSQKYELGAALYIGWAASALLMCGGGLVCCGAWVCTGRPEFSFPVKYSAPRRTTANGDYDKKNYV

control AECs [4] = test: Paracellular flux of tracers, control AECs; assay type: cell-based, rat; conditions: 10 mM peptide, 16 h
Method: as §1

ZO-1 = test: Immunoblot for ZO-1, alcohol-exposed AECs; assay type: cell-based, rat; conditions: peptide-treated alcohol-exposed AECs
alcohol-exposed AECs [5] = test: Quantification of % cells with 3 or more tight-junction spikes, alcohol-exposed AECs; assay type: cell-based, rat; conditions: for tight junction spikes versus control shRNA: alcohol exposed AECs transduced with lentiviral shRNA
Method: Morphologic disruption of tight junctions was not restricted to claudin-18, as claudin-5 and ZO-1 were also impaired in YFP-claudin-5-transduced AECs. To determine whether ZO-1 disruption was specifically linked to increased claudin-5, the effect of increased YFP-claudin-3 on ZO-1 localization by AECs was examined. […] In a complementary experiment, it was determined whether the ability of alcohol to induce formation of tight-junction spikes was antagonized by depleting claudin-5 using shRNA. […] Thus, claudin-5 was […] to enhance formation of tight-junction spikes.
(§3) To further confirm that spikes were sites of active claudin vesicle formation and fusion, the effects of the dynamin inhibitor Dynasore14 was examined on spike formation by alcohol-exposed AECs.

claudin-18 = target: T2, claudin-18 (Rattus norvegicus, UniProt Q5I0E5); test: Immunoblot for claudin-18, alcohol-exposed AECs; assay type: cell-based; conditions: peptide-treated alcohol-exposed AECs
T2 construct: endogenous in cells; host or cells: primary alveolar epithelial cells (AECs) from alcohol-fed rats
T2 sequence (Q5I0E5 1-261): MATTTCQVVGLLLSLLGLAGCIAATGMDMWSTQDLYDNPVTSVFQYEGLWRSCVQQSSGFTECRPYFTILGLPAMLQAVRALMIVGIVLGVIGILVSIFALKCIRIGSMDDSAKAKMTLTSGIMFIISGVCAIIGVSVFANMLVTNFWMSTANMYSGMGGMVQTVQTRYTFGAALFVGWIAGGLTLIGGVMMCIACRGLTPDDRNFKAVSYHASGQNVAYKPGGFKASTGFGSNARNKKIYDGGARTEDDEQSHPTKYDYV

control AECs [6] = test: Transepithelial resistance (TER), control AECs; assay type: cell-based, rat; conditions: 10 mM peptide, 16 h
Method: as §2, §1

control AECs [7] = conditions: normal AECs treated with inhibitor; cited from earlier work
claudin-5 [8] = conditions: normal AECs treated with inhibitor; cited from earlier work
control AECs [9] = test: Quantification of % cells with 3 or more tight-junction spikes, control AECs; assay type: cell-based, rat; conditions: Dynasore treatment
From the text: as §3

alcohol-exposed AECs [10] = test: Live-cell imaging of YFP-claudin-18 in alcohol-exposed AECs; assay type: cell-based, rat; conditions: Dynasore-treated alcohol-exposed AECs
From the text: as §3

claudin-3 and claudin-4 = conditions: cited from earlier work

CC(=O)NC(CCC(=O)O)C(=O)NC(Cc1ccccc1)C(=O)NC(Cc1ccc(O)cc1)C(=O)NC(CC(=O)O)C(=O)N1CCCC1C(N)=O (stereo not shown) [Ac-EFYDP(SEQ ID NO: 1)-NH2, Ac-EFYDP(SEQ ID NO:1)-NH2] (Ac-EFYDP-NH2; configuration not given here)
claudin-1 content (claudin-1): unaffected
paracellular flux of 10 kDa Texas Red dextran (alcohol-exposed AECs [1]): decrease
paracellular flux of calcein (alcohol-exposed AECs [1]): decrease
TER (alcohol-exposed AECs [2]): increase
total claudin-5 content (immunoblot) (claudin-5 [3]): significant and specific decrease
paracellular flux of 10 kDa Texas Red dextran (control AECs [4]): unaffected
paracellular flux of calcein (control AECs [4]): unaffected
ZO-1 content (immunoblot) (ZO-1): unaffected
tight-junction spike formation (alcohol-exposed AECs [5]; peptide-treated alcohol-exposed AECs, P<0.001 versus untreated and control peptide): decrease
claudin-18 content (immunoblot) (claudin-18): unaffected
TER (control AECs [6]): unaffected

Cc1ccc2nc(NCCN)c3ncc(C)n3c2c1 [BMS-345541]
formation of tight-junction spikes (control AECs [7]): increased
claudin-5 expression (claudin-5 [8]): increased

O=C(NN=Cc1ccc(O)c(O)c1)c1cc2ccccc2cc1O [Dynasore, N′-(3,4-dihydroxybenzylidene)-3-hydroxy-2-naphthohydrazide]
spike formation by control cells (control AECs [9]): did not have a significant effect
punctate YFP-claudin-18 labelling (alcohol-exposed AECs [10]): increase
% cells containing 3 or more tight junction spikes oriented towards the nucleus (alcohol-exposed AECs [5]; 160 μM for 4 h, cells from alcohol fed rats, P=0.002): significantly decreased

Ac-DFYNP-NH2
effectiveness of D-amino acid version relative to corresponding L-amino acid version (claudin-3 and claudin-4): 10-100 fold

Ac-LYQY(SEQ ID NO:35)-NH2 (Ac-LYQY-NH2) [Ac-LYQY (SEQ ID NO:35)-NH2, control peptide, reference compound]
paracellular flux of 10 kDa Texas Red dextran (alcohol-exposed AECs [1]): no effect
paracellular flux of calcein (alcohol-exposed AECs [1]): no effect
TER (alcohol-exposed AECs [2]): no effect
paracellular flux of 10 kDa Texas Red dextran (control AECs [4]): no effect
paracellular flux of calcein (control AECs [4]): no effect
TER (control AECs [6]): no effect

B1: shRNA2: lentiviral short hairpin RNA targeting claudin-5, 1594-1612, SEQ ID NO: 29/30 (nucleic acid)
chain 1: CCCCCCACCAAACTGCCGCTAACTTCAAGAGAGTTAGCGGCAGTTTGGTGGTTTTTGG
chain 2: CCAAAAACCACCAAACTGCCGCTAACTCTCTTGAAGTTAGCGGCAGTTTGGTGGGGGG
tight junction spikes versus control shRNA (alcohol-exposed AECs [5]): trend towards decreased spikes

B2: claudin-5 shRNA1: lentiviral short hairpin RNA targeting claudin-5, 616-624, SEQ ID NO: 27/28 (nucleic acid)
chain 1: CCCCCCAACGGCGATTACGACAATTCAAGAGATTGTCGTAATCGCCGTTGGTTTTTGG
chain 2: CCAAAAACCAACGGCGATTACGACAATCTCTTGAATTGTCGTAATCGCCGTTGGGGGG
tight junction spikes versus control shRNA (alcohol-exposed AECs [5]): significantly fewer
